pIC50, pKd: −log10 of the molar value. Like-named read-outs stand apart in the source and are kept apart here.
What was measured:
Cdk7/CycH = system: T1, Cdk7/CycH; test: radioactive in vitro kinase assay, Cdk7/CycH; format: biochemical, human; settings: 0, 0.1, 1, 10, 100 μM compound, 0.2 μM kinase, 0.2 mM ATP
T1 construct: Full-length, human, WT Cdk7 (residues 1–346, UniProt P50613); made in house; host or cells: Sf9 insect cells
Method: (§1) Radioactive kinase activity assays were performed in a total volume of 15 μl per sample in kinase assay buffer (50 mM Hepes/pH 7.6, 34 mM KCl, 7 mM MgCl2, 5 mM β-glycerol phosphate, and 2.5 mM dithioerythritol). Preincubation of 0.2 μM or 0.02 μM recombinant protein kinase with indicated concentrations of respective inhibitor and 0.2 to 2 mM ATP containing 0.45 mCi [^32P]-γ-ATP/ml (PerkinElmer) was carried out for 5 min. Kinase reactions were started by addition of substrate protein (10 μM GST-Rb1 for Cdk4/CycD3, 10 μM GST-CTD[52] for Cdk7/CycH/MAT1, 50 μM His-c-Myc for all others) and incubated for 20 min at 30 °C in a shaking incubator at 300 rpm. For pS7-CTD[3] peptide, the substrate concentration was increased to 100 μM and assays were performed for 60 min. Reactions were terminated by the addition of EDTA to a final concentration of 50 mM. […] Radioactive counts were determined in a Beckman Liquid Scintillation Counter (Beckman Coulter) for 1 min. […] IC50 values were extracted from triplicate measurements by sigmoidal curve fitting using DataGraph (v. 5.0; https://www.visualdatatools.com/DataGraph/) or were determined by applying the Morrison quadratic equation for tight binding inhibitors using GraphPad Prism 10 (https://www.graphpad.com/) ([40]).

HIPK3 = system: T2, HIPK3; test: radioactive in vitro kinase assay, HIPK3; format: biochemical, human; settings: 0, 0.1, 1, 10, 100 μM compound, 0.2 μM kinase, 0.2 mM ATP
T2 construct: human HIPK3 (residues 159–562, UniProt Q9H422); made in house; host or cells: Sf9 insect cells
Method: as §1

Cdk12/CycK = molecular target: T3, Cdk12/CycK (Homo sapiens, UniProt Q9NYV4); test: nanoDSF thermal protein stability, Cdk12/CycK; format: binding; settings: 5 μM protein
T3 construct: GST (TEV site) (N, cleaved yes); made in house; host or cells: Sf9 insect cells, co-expressed with S. cerevisiae CAK1
Method: At 10 μM concentration, the thermal shift observed was +4.7 °C, while at 100 μM the thermal stability was increased by +6.2 °C (Table S2) compared to a DMSO control. Together, the results obtained from both SPR and nanoDSF measurements align well with the IC50 values determined for Cdk12∗/CycK and Cdk13∗/CycK kinases.
For identification of thermal protein stability, nanoDSF experiments were conducted using a Prometheus NT.48 (NanoTemper) instrument. […] at the wavelengths λ = 330 and 350 nm were monitored at an excitation power of 25% in a temperature range from 20 to 90 °C with a slope of 1.5 °C/min. The measurement was conducted and evaluated with the PR.ThermControl software (https://nanotempertech.com/prometheus/nt48-software/). Experiments were conducted in duplicates.

Cdk13/CycK [1] = molecular target: T4, Cdk13/CycK (Homo sapiens, UniProt Q14004); test: radioactive in vitro kinase assay, Cdk13/CycK; format: biochemical
T4 construct: The kinase domain of human Cdk13 (residues 694–1039, UniProt Q14004); made in house; host or cells: Sf9 insect cells, co-expressed with CAK1
Method: To a concentration of 0.2 μM kinase and 0.2 mM ATP, a compound concentration ranging from 0.1 nM to 1 mM was applied. Kinase reactions were started by the addition of 100 μM CTD peptide containing three hepta-repeats continuously prephosphorylated at position S7 (pS7-CTD[3]) and terminated after 60 min incubation time. In vitro IC50-values were determined by applying a sigmoidal fit to dose-response measurements (Fig. 1A). […] The Michaelis–Menten constants (KM) for ATP were determined as 17.5 μM for Cdk12/CycK and 12.6 μM for Cdk13/CycK, respectively. […] These values are in accordance with the values derived from sigmoidal curve fitting.
Radioactive kinase activity assays were performed in a total volume of 15 μl per sample in kinase assay buffer (50 mM Hepes/pH 7.6, 34 mM KCl, 7 mM MgCl2, 5 mM β-glycerol phosphate, and 2.5 mM dithioerythritol). […] Radioactive counts were determined in a Beckman Liquid Scintillation Counter (Beckman Coulter) for 1 min. […] IC50 values were extracted from triplicate measurements by sigmoidal curve fitting using DataGraph (v. 5.0; https://www.visualdatatools.com/DataGraph/) or were determined by applying the Morrison quadratic equation for tight binding inhibitors using GraphPad Prism 10 (https://www.graphpad.com/) ([40]).

Cdk8/CycC = test: radioactive in vitro kinase assay, Cdk8/CycC; format: biochemical, human; settings: 0, 0.1, 1, 10, 100 μM compound, 0.2 μM kinase, 0.2 mM ATP
Method: as §1

Cdk13/CycK [2] = molecular target: T4, Cdk13/CycK; test: SPR single-cycle kinetics, active Cdk13*/CycK; settings: T-loop phosphorylated active kinase (CAK1 coexpressed), 1:1 binding model
Method: The protein kinases were immobilized on a CM5 chip using the amine-coupling method. […] The fully active and T-loop phosphorylated kinase preparations of Cdk12∗/CycK and Cdk13∗/CycK were obtained through coexpression with Cdk-activating kinase 1 (CAK1) from Saccharomyces cerevisiae. […] For comparison, we measured the affinity of NVP-2 for active kinases Cdk12∗/CycK and its proposed target Cdk9/CycT1 by SPR.
SPR experiments were conducted on a Biacore 8K (Cytiva) device. The system was equilibrated in running buffer (20 mM Tris pH 8, 150 mM NaCl, 1 mM tris(2-carboxyethyl)phosphine, 0.1 mM MgCl2, 0.05% Tween20, and 2% DMSO) at 25 °C. Flow cell 1 and 2 surfaces of a CM5 sensor chip (Cytiva) were conditioned with 50 mM NaOH at a flow rate of 30 μl/min for 15 s and subsequently activated with a 1:1 mix of 0.1 M N-hydroxysuccinimide (NHS) and 0.1 M 3-(N,N-dimethylamino) propyl-N-ethyl-carbodiimide (EDC) at a flow rate of 10 μl/min for 7 min. The flow system was washed with 1 M enthanolamine (pH 8). WT and mutant kinases Cdk12/CycK, Cdk13/CycK and Cdk9/CycT1 were diluted in Mes (pH 6.5) to a final concentration of 2 μM. Immobilization of kinases was performed in running buffer without DMSO using the amine coupling method on flow cell 2 surface for 160 s at a flow rate of 10 μl/min. Free binding sites were blocked with 1 M ethanolamine pH 8.0 (10 μl/min) for 7 min. […]

T3 sequence (Q9NYV4 714-1063): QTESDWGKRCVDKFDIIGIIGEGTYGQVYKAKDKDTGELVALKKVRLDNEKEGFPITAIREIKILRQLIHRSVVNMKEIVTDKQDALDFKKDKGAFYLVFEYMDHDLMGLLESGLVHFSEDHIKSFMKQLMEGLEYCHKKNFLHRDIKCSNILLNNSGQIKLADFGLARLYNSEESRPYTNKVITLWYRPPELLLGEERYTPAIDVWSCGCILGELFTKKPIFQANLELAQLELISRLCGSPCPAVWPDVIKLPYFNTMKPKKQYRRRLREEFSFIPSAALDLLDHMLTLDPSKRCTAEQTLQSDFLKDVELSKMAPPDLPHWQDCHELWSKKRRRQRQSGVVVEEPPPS
T3 sequence (O75909 1-267 partner limits assumed): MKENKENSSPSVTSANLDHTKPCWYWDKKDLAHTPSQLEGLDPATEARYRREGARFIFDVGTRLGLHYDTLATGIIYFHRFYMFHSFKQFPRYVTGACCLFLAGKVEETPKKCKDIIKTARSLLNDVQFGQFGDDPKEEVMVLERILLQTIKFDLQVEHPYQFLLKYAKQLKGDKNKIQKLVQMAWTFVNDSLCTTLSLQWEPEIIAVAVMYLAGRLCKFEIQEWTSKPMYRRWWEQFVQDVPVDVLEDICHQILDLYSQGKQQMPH
T4 sequence (Q14004 694-1039): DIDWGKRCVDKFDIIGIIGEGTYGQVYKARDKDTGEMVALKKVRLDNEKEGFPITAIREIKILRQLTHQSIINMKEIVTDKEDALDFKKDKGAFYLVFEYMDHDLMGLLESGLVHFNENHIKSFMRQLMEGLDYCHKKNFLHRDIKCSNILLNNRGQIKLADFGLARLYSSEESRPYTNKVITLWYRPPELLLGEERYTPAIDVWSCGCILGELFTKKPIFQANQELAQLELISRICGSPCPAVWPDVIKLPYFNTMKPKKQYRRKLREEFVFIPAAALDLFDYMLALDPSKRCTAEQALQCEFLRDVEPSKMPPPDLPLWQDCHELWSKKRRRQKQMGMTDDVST
T4 sequence (O75909 1-267 partner limits assumed): as the sequence (O75909 1-267 partner limits assumed) above

Cn1cc(-n2cnc3c(NCc4nc5cc(Cl)c(Cl)cc5[nH]4)nc(N4CCOCC4)nc32)cn1 [SR-4835]
inhibition of Cdk7 activity (Cdk7/CycH): no inhibitory activity
inhibition of HIPK3 activity (HIPK3): not inhibited
Tm, Cdk12/CycK (Cdk12/CycK; 1 μM compound): 51.45 °C
∆Tm to DMSO control, Cdk12/CycK (Cdk12/CycK; 1 μM compound): +0.80 °C
Tm, Cdk12/CycK (Cdk12/CycK; 10 μM compound): 58.70 °C
Tm, Cdk12/CycK (Cdk12/CycK; 100 μM compound): 60.45 °C
pIC50 (Cdk13/CycK [1]; 0.2 μM and 0.02 μM kinase, c-Myc substrate, Morrison quadratic equation fit, read-out: IC50 Cdk13/CycK, Morrison quadratic equation): 6.40 to 6.44
pIC50 (Cdk13/CycK [1]; 0.2 μM kinase, 0.2 mM ATP, 100 μM pS7-CTD[3], 60 min, sigmoidal fit, read-out: IC50 Cdk13/CycK on pS7-CTD[3]): 6.44
inhibition of Cdk8 activity (Cdk8/CycC): no inhibitory activity
pKd (Cdk13/CycK [2]): 6.77

Reference: paper PMC10767194 (The Journal of Biological Chemistry, 2023)
